Read-outs that look alike come from different tables or passages of the source.
How the values were obtained:
HIV 3B = test: Anti-HIV testing: protection of MT4 cells from virus induced cytopathic effect (MTT uptake); assay type: cell-based, HIV-1; settings: for Antiviral Activity: % Protection: MT4 cells, HIV 3B, 5 days, 37° C.
Procedure: (§1) The sample, considered of adequate quality for antiviral testing is assayed as follows:
(§2) The assays are carried out in 96 well (microtitre) panels using the MT4 cell line, infe3cted with IOTCID50 of HIV 3B. The antiviral activity and cytotoxicity of each compound is assayed simultaneously. Three compounds are screened on each panel. Each compound is tested at 100.0, 10.0, 1.0 and 0.1 μM, unless otherwise stated. AZT is included in each assay as a positive control at 10.0, 1.0, 0.1 and 0.01 μM.
(§3) The antiviral activity (in infected cells) and cytotoxicity (to uninfected cells) of each compound is determined by measuring the number of viable cells remaining after 5 days incubation of 37° C. and comparing them with infected or uninfected controls. The number of viable cells is determined by the addition of the tetrazolium dye MTT. […] Following MTT addition, the cells are solubilised with acidified isopropanol and the extent of MTT conversion is measured spectrophotometrically.
Antiviral activity is apparent through the ability of compounds to protect the cells from virus induced cytopathic effect. The result is reported as the percentage of cells protected at a given drug concentration.

[1] = Cytotoxicity to uninfected MT4 cells (MTT uptake); assay type: cell-based; settings: human
Procedure: as §1, §2, §3

## Cc1cn([C@H]2C[C@H](N=[N+]=[N-])[C@@H](COP(=O)(OC[C@H]3O[C@@H](n4cc(C)c(=O)[nH]c4=O)C[C@@H]3N=[N+]=[N-])Oc3ccc(S(C)(=O)=O)cc3)O2)c(=O)[nH]c1=O [BTG 1704, 4-(methylsulphonyl)phenyl bis (3'-azido thymidin-5'-yl) phosphate]
HIV 3B; 0.001 μM
  Antiviral Activity: % Protection: 9%
HIV 3B; 0.01 μM
  Antiviral Activity: % Protection: 21%
HIV 3B; 0.1 μM
  Antiviral Activity: % Protection: 91%
HIV 3B; 1.0 μM
  Antiviral Activity: % Protection: 91%
HIV 3B; 10 μM
  Antiviral Activity: % Protection: 79%
HIV 3B; 100 μM
  Antiviral Activity: % Protection: 13%
HIV 3B; concentrations between 0.1 and 10 μM
  protection of MT4 cells from HIV-1 cytopathic effect: significant protection
[1]; estimated, not a quantitative test for cytotoxicity, read-out: toxic concentration of the drug
  MCC at 120 h: ~100 µM
[1]; uninfected MT4 cells, 5 days, 37° C., read-out: MTC
  MCC at 120 h: 100 µM
